Values of other authors as cited in PMC9881854 (bioRxiv, 2023).

Test system: mTOR

CO[C@H]1C[C@@H]2CC[C@@H](C)[C@@](O)(O2)C(=O)C(=O)N2CCCC[C@H]2C(=O)O[C@H]([C@H](C)C[C@@H]2CC[C@@H](O)[C@H](OC)C2)CC(=O)[C@H](C)/C=C(\C)[C@@H](O)[C@@H](OC)C(=O)[C@H](C)C[C@H](C)/C=C/C=C/C=C/1C [rapamycin]
binding of rapamycin by itself to mTOR: weak micromolar binder
